Laboratory results: patent US12459922B2 (Gilead Sciences, Inc., priority 2022, dated 2025)

System: endogenous cellular STAT1 (phosphorylated at Tyr701) in NCI-H1373 cells
Assay: Phospho-STAT1 (Tyr701) LANCE Ultra TR-FRET Detection Assay
Format: cell-based
Details: Homo sapiens, NCI-H1373, 48 h, phospho-STAT1 (Tyr701) induction, read-out: NH1373 pSTAT1 EC50

SMILES | EC50
C#C[C@H](CCCn1ccc2cc(-c3ncc(C(F)(F)F)cn3)c(F)cc2c1=O)Nc1cn[nH]c(=O)c1C(F)(F)F [Example 171, 7-fluoro-2-[(4S)-4-[[6-oxo-5-(trifluoromethyl)-1H-pyridazin-4-yl]amino]hex-5-ynyl]-6-[5-(trifluoromethyl)pyrimidin-2-yl]isoquinolin-1-one] | 257 nM
CN(CCCn1ccc2cc(-c3ncc(C(F)(F)F)cn3)c(F)cc2c1=O)Nc1cn[nH]c(=O)c1C(F)(F)F [Example 172, 7-fluoro-2-(3-(1-methyl-2-(6-oxo-5-(trifluoromethyl)-1,6-dihydropyridazin-4-yl)hydrazineyl)propyl)-6-(5-(trifluoromethyl)pyrimidin-2-yl)isoquinolin-1(2H)-one] | 1010 nM
C[C@@H](CCCn1ccc2cc(-n3cc(C(F)(F)F)cn3)ccc2c1=O)Nc1cn[nH]c(=O)c1C(F)(F)F [Example 173, (S)-2-(4-((6-oxo-5-(trifluoromethyl)-1,6-dihydropyridazin-4-yl)amino)pentyl)-6-(4-(trifluoromethyl)-1H-pyrazol-1-yl)isoquinolin-1(2H)-one] | 270 nM
C[C@@H]1C[C@@H](CCCn2ccc3cc(-c4ncc(C(F)(F)F)cn4)c(F)cc3c2=O)N(c2cn[nH]c(=O)c2C(F)(F)F)C1 [Example 174, 7-fluoro-2-(3-((2R,4R)-4-methyl-1-(6-oxo-5-(trifluoromethyl)-1,6-dihydropyridazin-4-yl)pyrrolidin-2-yl)propyl)-6-(5-(trifluoromethyl)pyrimidin-2-yl)isoquinolin-1(2H)-one] | 287 nM
COc1cnc(-c2cc3ccn(CCC[C@@H]4C[C@@H](C)CN4c4cn[nH]c(=O)c4C(F)(F)F)c(=O)c3cc2F)nc1N [Example 175, 6-(4-amino-5-methoxypyrimidin-2-yl)-7-fluoro-2-[3-[(2R,4R)-4-methyl-1-[6-oxo-5-(trifluoromethyl)-1H-pyridazin-4-yl]pyrrolidin-2-yl]propyl]isoquinolin-1-one] | 57.5 nM
C[C@@H]1C[C@@H](CCCn2cnc3cc(-c4ncc(C(F)(F)F)cn4)c(F)cc3c2=O)N(c2cn[nH]c(=O)c2C(F)(F)F)C1 [Example 176, 6-fluoro-3-[3-[(2R,4R)-4-methyl-1-[6-oxo-5-(trifluoromethyl)-1H-pyridazin-4-yl]pyrrolidin-2-yl]propyl]-7-[5-(trifluoromethyl)pyrimidin-2-yl]quinazolin-4-one] | 186 nM
COc1cnc(-c2cc3ncn(CCC[C@@H]4C[C@@H](C)CN4c4cn[nH]c(=O)c4C(F)(F)F)c(=O)c3cc2F)nc1N [Example 177, 7-(4-amino-5-methoxypyrimidin-2-yl)-6-fluoro-3-[3-[(2R,4R)-4-methyl-1-[6-oxo-5-(trifluoromethyl)-1H-pyridazin-4-yl]pyrrolidin-2-yl]propyl]quinazolin-4-one] | 537 nM
Nc1nc(-c2cc3ccn(CC[C@H]4CCC[C@@H]4Nc4cn[nH]c(=O)c4C(F)(F)F)c(=O)c3cc2F)ncc1C(F)(F)F [Example 178, 6-(4-amino-5-(trifluoromethyl)pyrimidin-2-yl)-7-fluoro-2-(2-((1R,2S)-2-((6-oxo-5-(trifluoromethyl)-1,6-dihydropyridazin-4-yl)amino)cyclopentyl)ethyl)isoquinolin-1(2H)-one] | 1.8 nM
O=c1[nH]ncc(N[C@H]2CCC[C@@H]2CCn2ccc3cc(-c4ncc(C(F)(F)F)cn4)c(F)cc3c2=O)c1C(F)(F)F [Example 179, 7-fluoro-2-(2-((1R,2S)-2-((6-oxo-5-(trifluoromethyl)-1,6-dihydropyridazin-4-yl)amino)cyclopentyl)ethyl)-6-(5-(trifluoromethyl)pyrimidin-2-yl)isoquinolin-1(2H)-one] | 4.03 nM
CCOC[C@@H](CCCn1ccc2cc(-c3ncc(C(F)(F)F)cn3)c(F)cc2c1=O)Nc1cn[nH]c(=O)c1C(F)(F)F [Example 180, (R)-2-(5-ethoxy-4-((6-oxo-5-(trifluoromethyl)-1,6-dihydropyridazin-4-yl)amino)pentyl)-7-fluoro-6-(5-(trifluoromethyl)pyrimidin-2-yl)isoquinolin-1(2H)-one] | 1.89 nM
[2H]C([2H])([2H])OC[C@@H](CCCn1ccc2cc(-c3ncc(C(F)(F)F)cn3)c(F)cc2c1=O)Nc1cn[nH]c(=O)c1C(F)(F)F [Example 181, (R)-7-fluoro-2-(5-(methoxy-d3)-4-((6-oxo-5-(trifluoromethyl)-1,6-dihydropyridazin-4-yl)amino)pentyl)-6-(5-(trifluoromethyl)pyrimidin-2-yl)isoquinolin-1(2H)-one] | 14.2 nM
O=c1[nH]ncc(N2Cc3ccccc3[C@H]2CCCn2ccc3cc(-c4ncc(C(F)(F)F)cn4)c(F)cc3c2=O)c1C(F)(F)F [Example 182, 7-fluoro-2-[3-[(1R)-2-[6-oxo-5-(trifluoromethyl)-1H-pyridazin-4-yl]isoindolin-1-yl]propyl]-6-[5-(trifluoromethyl)pyrimidin-2-yl]isoquinolin-1-one] | 82.5 nM
O=c1[nH]ncc(N[C@H]2CCC[C@@H](Cn3ccc4cc(-c5ncc(C(F)(F)F)cn5)c(F)cc4c3=O)C2)c1C(F)(F)F [Example 183, 7-fluoro-2-[[(1R,3S)-3-[[6-oxo-5-(trifluoromethyl)-1H-pyridazin-4-yl]amino]cyclohexyl]methyl]-6-[5-(trifluoromethyl)pyrimidin-2-yl]isoquinolin-1-one] | 6.39 nM
COc1cnc(-c2cc3ccn(CCC[C@H](C)Nc4cn[nH]c(=O)c4C(F)(F)F)c(=O)c3cc2F)nc1N1CCC1 [Example 186, (S)-6-(4-(azetidin-1-yl)-5-methoxypyrimidin-2-yl)-7-fluoro-2-(4-((6-oxo-5-(trifluoromethyl)-1,6-dihydropyridazin-4-yl)amino)pentyl)isoquinolin-1(2H)-one] | 66.1 nM
C[C@@H](CCCn1ccc2cc(-c3ncc(C(F)(F)F)c(N4CCC4)n3)c(F)cc2c1=O)Nc1cn[nH]c(=O)c1C(F)(F)F [Example 187, (S)-6-(4-(azetidin-1-yl)-5-(trifluoromethyl)pyrimidin-2-yl)-7-fluoro-2-(4-((6-oxo-5-(trifluoromethyl)-1,6-dihydropyridazin-4-yl)amino)pentyl)isoquinolin-1(2H)-one] | 20.7 nM
COc1cnc(-c2cc3ncn(CCC[C@H](C)Nc4cn[nH]c(=O)c4C(F)(F)F)c(=O)c3cc2F)nc1N1CCC1 [Example 188, (S)-7-(4-(azetidin-1-yl)-5-methoxypyrimidin-2-yl)-6-fluoro-3-(4-((6-oxo-5-(trifluoromethyl)-1,6-dihydropyridazin-4-yl)amino)pentyl)quinazolin-4(3H)-one] | 42 nM
C[C@@H](CCCn1cnc2cc(-c3ncc(C(F)(F)F)c(N4CCC4)n3)c(F)cc2c1=O)Nc1cn[nH]c(=O)c1C(F)(F)F [Example 189, (S)-7-(4-(azetidin-1-yl)-5-(trifluoromethyl)pyrimidin-2-yl)-6-fluoro-3-(4-((6-oxo-5-(trifluoromethyl)-1,6-dihydropyridazin-4-yl)amino)pentyl)quinazolin-4(3H)-one] | 14.7 nM
C[C@@H](CCCn1cnc2cc(-c3ncc(C(F)(F)F)c(N4CC(C)(O)C4)n3)c(F)cc2c1=O)Nc1cn[nH]c(=O)c1C(F)(F)F [Example 190, (S)-6-fluoro-7-(4-(3-hydroxy-3-methylazetidin-1-yl)-5-(trifluoromethyl)pyrimidin-2-yl)-3-(4-((6-oxo-5-(trifluoromethyl)-1,6-dihydropyridazin-4-yl)amino)pentyl)quinazolin-4(3H)-one] | 29.9 nM
C[C@@H](CCCn1ccc2cc(-c3ncc(C(F)(F)F)c(N4CC(C)(O)C4)n3)c(F)cc2c1=O)Nc1cn[nH]c(=O)c1C(F)(F)F [Example 191, (S)-7-fluoro-6-(4-(3-hydroxy-3-methylazetidin-1-yl)-5-(trifluoromethyl)pyrimidin-2-yl)-2-(4-((6-oxo-5-(trifluoromethyl)-1,6-dihydropyridazin-4-yl)amino)pentyl)isoquinolin-1(2H)-one] | 26.9 nM
CCOc1cnc(-c2cc3ccn(CCC[C@H](C)Nc4cn[nH]c(=O)c4C(F)(F)F)c(=O)c3cc2F)nc1N [Example 192, (S)-6-(4-amino-5-ethoxypyrimidin-2-yl)-7-fluoro-2-(4-((6-oxo-5-(trifluoromethyl)-1,6-dihydropyridazin-4-yl)amino)pentyl)isoquinolin-1(2H)-one] | 2.24 nM
CCOc1ccc(-c2cc3ccn(CCC[C@H](C)Nc4cn[nH]c(=O)c4C(F)(F)F)c(=O)c3cc2F)nc1N [Example 193, (S)-6-(6-amino-5-ethoxypyridin-2-yl)-7-fluoro-2-(4-((6-oxo-5-(trifluoromethyl)-1,6-dihydropyridazin-4-yl)amino)pentyl)isoquinolin-1(2H)-one] | 22.3 nM
C[C@@H](CCCn1ccc2cc(-c3ncc(OC(F)F)c(N)n3)c(F)cc2c1=O)Nc1cn[nH]c(=O)c1C(F)(F)F [Example 194, (S)-6-(4-amino-5-(difluoromethoxy)pyrimidin-2-yl)-7-fluoro-2-(4-((6-oxo-5-(trifluoromethyl)-1,6-dihydropyridazin-4-yl)amino)pentyl)isoquinolin-1(2H)-one] | 6.6 nM
COc1ccc(-c2cc3ccn(CCC[C@H](C)Nc4cn[nH]c(=O)c4C(F)(F)F)c(=O)c3cc2F)nc1N [Example 195, (S)-6-(6-amino-5-methoxypyridin-2-yl)-7-fluoro-2-(4-((6-oxo-5-(trifluoromethyl)-1,6-dihydropyridazin-4-yl)amino)pentyl)isoquinolin-1(2H)-one] | 8.14 nM
[2H]C([2H])([2H])Oc1cnc(-c2cc3ccn(CCC[C@H](C)Nc4cn[nH]c(=O)c4C(F)(F)F)c(=O)c3cc2F)nc1N [Example 196, 6-[4-amino-5-(trideuteriomethoxy)pyrimidin-2-yl]-7-fluoro-2-[(4S)-4-[[6-oxo-5-(trifluoromethyl)-1H-pyridazin-4-yl]amino]pentyl]isoquinolin-1-one] | 6.13 nM
C[C@@H](CCCn1ccc2cc(-c3nccc(C(F)F)n3)c(F)cc2c1=O)Nc1cn[nH]c(=O)c1C(F)(F)F [Example 197, (S)-6-(4-(difluoromethyl)pyrimidin-2-yl)-7-fluoro-2-(4-((6-oxo-5-(trifluoromethyl)-1,6-dihydropyridazin-4-yl)amino)pentyl)isoquinolin-1(2H)-one] | 638 nM
